According to publication PMC3923778 (PLoS Currents, 2014):
Entries after “also recorded” stand apart in the source; their conditions may differ.

Key:
R6/2 mice = assay: Rear Climbing Test; format: in vivo, mouse; details: for Rear Climbing Test Rearing Frequency: p vs Vehicle-treated R6/2 mice / Rear Climbing Test Climbing Instances: p vs Vehicle-treated R6/2 mice / Rear Climbing Test Latency to Climb: p vs Vehicle-treated R6/2 mice / Rear Climbing Test Time Spent Climbing: p vs Vehicle-treated R6/2 mice: BID
Description: Motor function testing including open field and rear climbing tests were commenced at 4 weeks of age and continued at weeks 6, 8 and 12, for grip strength test at age weeks 4 and 12 and for rotarod at age weeks 4, 6 and 8. Compound treatment was started at 4 weeks of age after the baseline behavioral tests.
Rear climbing test was performed at age weeks 4, 6, 8 and 12. The mice were tested on Tuesdays. Each animal was placed into custom made pencil holder, and was scored for 5 minutes. During this period the following events were noted: 1) number of times the mouse rears without touching the mesh walls, 2) latency to climb (lifting 4 paws from the floor is labeled climbing), 3) climbing time, and 4) climbing instances.
All values are presented as mean ± Standard Error of Mean (SEM), and differences are considered to be statistically significant at the p < 0.05 level. Statistical analysis was performed using StatsDirect statistical software. Differences between group means were analyzed by 1-way-ANOVA followed by Dunnett’s test (comparison to the control (=vehicle treated TG mice) group). The acquisition of the Cued two-choice swim test was analyzed using Fisher’s exact test.

disease-relevant genes = assay: Taqman-qPCR of disease-relevant genes; format: in vivo, mouse; details: chronic administration; 13 weeks of age; lower dose group study
Description: Total RNA was extracted with the mini-RNA kit accordingly to manufacturer instructions (Qiagen). Reverse transcription (RT) was performed using MMLV superscript reverse transcriptase (Invitrogen) and random hexamers (Operon) and all Taqman-qPCR reactions were performed using the Chromo4 Real-Time PCR Detector (BioRad) as described. Expression level of the gene-of-interest was normalised to the geometric mean of three endogenous housekeeping genes (Primer Design) as described. […]

[1] = molecular target: T1, human choline transporter (Homo sapiens, UniProt Q9GZV3); assay: Cerep diversity panel screen at 10 µM; format: binding
T1 construct: Cerep (contract laboratory)
T1 sequence (Q9GZV3 whole entry): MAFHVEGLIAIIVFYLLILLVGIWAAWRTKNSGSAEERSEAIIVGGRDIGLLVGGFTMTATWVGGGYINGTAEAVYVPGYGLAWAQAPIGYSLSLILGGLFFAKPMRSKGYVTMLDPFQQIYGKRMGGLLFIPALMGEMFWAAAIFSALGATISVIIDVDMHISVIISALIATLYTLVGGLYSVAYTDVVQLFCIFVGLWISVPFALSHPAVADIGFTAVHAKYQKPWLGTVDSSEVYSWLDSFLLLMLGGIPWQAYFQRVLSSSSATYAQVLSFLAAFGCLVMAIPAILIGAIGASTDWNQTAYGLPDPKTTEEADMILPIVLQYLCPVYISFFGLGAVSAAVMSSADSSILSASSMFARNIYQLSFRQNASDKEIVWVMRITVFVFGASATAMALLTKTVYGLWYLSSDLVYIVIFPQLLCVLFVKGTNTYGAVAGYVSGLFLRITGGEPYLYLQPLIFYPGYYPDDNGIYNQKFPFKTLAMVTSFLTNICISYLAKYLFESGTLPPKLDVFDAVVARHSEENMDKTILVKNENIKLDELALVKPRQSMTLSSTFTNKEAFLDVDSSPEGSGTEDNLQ
Description: (§1) Studies were conducted at Cerep (France)

α2-adrenergic receptor = assay: Cerep diversity panel screen at 10 µM; format: binding
Description: as §1

[2] = test system: site 2 of the Na2+-channel; assay: Cerep diversity panel screen at 10 µM; format: binding
Description: as §1

NK3 receptor = molecular target: T2, NK3 receptor (Homo sapiens, UniProt P29371); assay: Cerep diversity panel screen at 10 µM; format: binding
T2 construct: Cerep (contract laboratory)
T2 sequence (P29371 whole entry, species assumed): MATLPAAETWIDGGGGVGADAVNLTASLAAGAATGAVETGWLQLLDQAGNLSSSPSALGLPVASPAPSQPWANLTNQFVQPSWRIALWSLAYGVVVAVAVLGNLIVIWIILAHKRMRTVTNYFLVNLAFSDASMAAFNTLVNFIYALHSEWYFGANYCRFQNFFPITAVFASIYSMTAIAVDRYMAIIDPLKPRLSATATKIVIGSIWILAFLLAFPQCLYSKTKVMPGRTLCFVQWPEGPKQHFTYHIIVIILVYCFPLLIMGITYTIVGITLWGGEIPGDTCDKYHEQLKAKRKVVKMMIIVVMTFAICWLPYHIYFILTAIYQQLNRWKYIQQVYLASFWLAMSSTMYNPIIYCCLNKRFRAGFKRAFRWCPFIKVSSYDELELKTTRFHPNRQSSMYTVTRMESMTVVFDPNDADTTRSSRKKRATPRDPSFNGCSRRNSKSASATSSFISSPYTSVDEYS
Description: as §1

[3] = Microdialysis PK: SCH-51866 in striatal extracellular dialysate; format: in vivo, mouse; details: single oral dose, male R6/2, 7-8 weeks
Description: Microdialysis PK/PD studies were conducted at Brains Online, Inc. (San Francisco, CA, USA) Male R6/2 (CBA/C57Bl/6 strain, CAG 120) mice aged 7-8 weeks (20 - 30 g; The Jackson Laboratory, USA) were used for the experiments. The animals were group housed in plastic cages (3-4 animals / cage) and had access to food and water ad libitum. Experiments were conducted in accordance with the declarations of Helsinki and were approved by the Institutional Animal Care and Use Committee of the University of California, San-Francisco. […] Mice were anesthetized using isoflurane (2%, 800 mL/min O2). Bupivacain/epinephrine was used for local anesthesia. Carprophen was used peri-/post-operative as analgesia. The animals were placed in a stereotaxic frame (Kopf instruments, USA), and microdialysis probes were inserted into the striatum. […] After surgery animals were kept individually in cages and provided food and water ad libitum. Animals were fasted the night before the experiment. Experiments were performed one day after surgery. […] Treatment effects were evaluated among different drug concentrations and also compared to baseline, using two-way ANOVA for repeated measurements followed by Student-Newman-Keuls post-hoc test. […] Pharmacodynamic parameters were calculated using Phoenix™ WinNonlin® Pro Node initial (Pharsight Corporation, Mountain View, CA, USA).

[4] = Age Week 4, 10 mg/kg p.o., ANOVA
[5] = Age Week 4, 30 mg/kg p.o., ANOVA
[6] = Age Week 6, 10 mg/kg p.o., ANOVA
[7] = Age Week 6, 30 mg/kg p.o., ANOVA
[8] = Age Week 8, 10 mg/kg p.o., ANOVA
[9] = Age Week 8, 30 mg/kg p.o., ANOVA
[10] = Age Week 12, 10 mg/kg p.o., ANOVA
[11] = Age Week 12, 30 mg/kg p.o., ANOVA

CN1C(=O)c2nc(Cc3ccc(C(F)(F)F)cc3)[nH]c2N2C1=N[C@H]1CCC[C@H]12 [SCH-51866, (+)-cis-5,6a,7,8,9,9a-hexahydro-2-[4-[trifluro-methyl]phenylmethyl]-5-methyl-cylopent[4,5]imidazo [2,1-b]purin-4(3H)one]
Rear Climbing Test Rearing Frequency: p vs Vehicle-treated R6/2 mice (R6/2 mice; Age Week 4, 10 mg/kg p.o.): p=0.507
Rear Climbing Test Climbing Instances: p vs Vehicle-treated R6/2 mice (R6/2 mice; [4]): ANOVA: p=0.484
Rear Climbing Test Latency to Climb: p vs Vehicle-treated R6/2 mice (R6/2 mice; [4]): ANOVA: p=0.365
Rear Climbing Test Time Spent Climbing: p vs Vehicle-treated R6/2 mice (R6/2 mice; [4]): ANOVA: p=0.853
Rear Climbing Test Rearing Frequency: p vs Vehicle-treated R6/2 mice (R6/2 mice; Age Week 4, 30 mg/kg p.o.): p=0.186
Rear Climbing Test Climbing Instances: p vs Vehicle-treated R6/2 mice (R6/2 mice; [5]): ANOVA: p=0.484
Rear Climbing Test Latency to Climb: p vs Vehicle-treated R6/2 mice (R6/2 mice; [5]): ANOVA: p=0.365
Rear Climbing Test Time Spent Climbing: p vs Vehicle-treated R6/2 mice (R6/2 mice; [5]): ANOVA: p=0.853
Rear Climbing Test Climbing Instances: p vs Vehicle-treated R6/2 mice (R6/2 mice; [6]): ANOVA: p=0.120
Rear Climbing Test Latency to Climb: p vs Vehicle-treated R6/2 mice (R6/2 mice; [6]): ANOVA: p=0.257
Rear Climbing Test Rearing Frequency: p vs Vehicle-treated R6/2 mice (R6/2 mice; [6]): ANOVA: p=0.203
Rear Climbing Test Time Spent Climbing: p vs Vehicle-treated R6/2 mice (R6/2 mice; [6]): ANOVA: p=0.291
Rear Climbing Test Climbing Instances: p vs Vehicle-treated R6/2 mice (R6/2 mice; [7]): ANOVA: p=0.120
Rear Climbing Test Latency to Climb: p vs Vehicle-treated R6/2 mice (R6/2 mice; [7]): ANOVA: p=0.257
Rear Climbing Test Rearing Frequency: p vs Vehicle-treated R6/2 mice (R6/2 mice; [7]): ANOVA: p=0.203
Rear Climbing Test Time Spent Climbing: p vs Vehicle-treated R6/2 mice (R6/2 mice; [7]): ANOVA: p=0.291
Rear Climbing Test Climbing Instances: p vs Vehicle-treated R6/2 mice (R6/2 mice; [8]): ANOVA: p=0.166
Rear Climbing Test Latency to Climb: p vs Vehicle-treated R6/2 mice (R6/2 mice; [8]): ANOVA: p=0.193
Rear Climbing Test Rearing Frequency: p vs Vehicle-treated R6/2 mice (R6/2 mice; [8]): ANOVA: p=0.782
Rear Climbing Test Time Spent Climbing: p vs Vehicle-treated R6/2 mice (R6/2 mice; [8]): ANOVA: p=0.750
Rear Climbing Test Climbing Instances: p vs Vehicle-treated R6/2 mice (R6/2 mice; [9]): ANOVA: p=0.166
Rear Climbing Test Latency to Climb: p vs Vehicle-treated R6/2 mice (R6/2 mice; [9]): ANOVA: p=0.193
Rear Climbing Test Rearing Frequency: p vs Vehicle-treated R6/2 mice (R6/2 mice; [9]): ANOVA: p=0.782
Rear Climbing Test Time Spent Climbing: p vs Vehicle-treated R6/2 mice (R6/2 mice; [9]): ANOVA: p=0.750
Rear Climbing Test Climbing Instances: p vs Vehicle-treated R6/2 mice (R6/2 mice; [10]): ANOVA: p=0.671
Rear Climbing Test Latency to Climb: p vs Vehicle-treated R6/2 mice (R6/2 mice; [10]): ANOVA: p=0.846
Rear Climbing Test Rearing Frequency: p vs Vehicle-treated R6/2 mice (R6/2 mice; [10]): ANOVA: p=0.122
Rear Climbing Test Time Spent Climbing: p vs Vehicle-treated R6/2 mice (R6/2 mice; [10]): ANOVA: p=0.724
Rear Climbing Test Climbing Instances: p vs Vehicle-treated R6/2 mice (R6/2 mice; [11]): ANOVA: p=0.671
Rear Climbing Test Latency to Climb: p vs Vehicle-treated R6/2 mice (R6/2 mice; [11]): ANOVA: p=0.846
Rear Climbing Test Rearing Frequency: p vs Vehicle-treated R6/2 mice (R6/2 mice; [11]): ANOVA: p=0.122
Rear Climbing Test Time Spent Climbing: p vs Vehicle-treated R6/2 mice (R6/2 mice; [11]): ANOVA: p=0.724
rearing frequency and latency to climb a custom-made pencil holder, effect in words (R6/2 mice; chronic administration in R6/2 mice): no improvement
expression of disease-relevant genes in striatum, cortex and cerebellum (disease-relevant genes): did not have a statistically significant effect; also recorded: no effects on the dysregulation of these genes
inhibition at 10 µM [1]: 94%
inhibition (α2-adrenergic receptor): 88%
inhibition [2]: 66%
inhibition at 10 µM (NK3 receptor): 57%
SCH-51866 in brain extracellular fluid [3]: dose-dependent accumulation
